Measurements reported in patent publication EP1767211B1, “Pharmaceutical agent containing hyaluronan as an active ingredient” (Glycoscience Laboratories, Inc., priority 2005, dated 2007).

Columns and labels:
[1] = test system: U937 cell; assay: IL-6 production under LPS stimulation, ELISA; format: cell-based, human; conditions: LPS 100 ng/ml, HA4 100 ng/ml, 24 hours
Description: (§1) • 2. Cell: U937 cell (human monocyte line), purchased from Dainipon Sumitomo Seiyaku. • 3. Culture medium: RPMI medium (containing 10% FBS). • 4. LPS E.coli, 0111B4, Chemicon.
(§2) An U937 cell was disseminated in a 2 ml aliquot in a 6-well microplate at 5×10^5 cell/ml, supplemented with an LPS at a final concentration of 100 or 1000 ng/ml, and then incubated for 24 hours with 5% CO2 at 37°C in the presence or absence of HA4 (100 ng/ml) . The culture supernatant was centrifuged at 3000 rpm for 5 minutes to obtain a test substance. A 1 ml aliquot of the recovered supernatant was subjected to Human Cytokine Antibody array (Raybio) using an ELISA (ENDOGEN) to detect the production of various cytokines.
To a microplate, 50 µl of a biotinylated antibody solution and 50 µl of the culture supernatant were added, and allowed to stand at room temperature for 2 hours. After washing with a washing buffer three times, 100 µl of a streptoavidin-HRP solution was added, allowed to stand at room temperature for 30 minutes, and washed with the washing buffer three times. A TMB was added, allowed to stand for at room temperature 30 minutes, and then a quencher was added to stop the reaction and the absorbance at 450 nm was measured (reference: 562 nm). The IL-6 concentration (pg/ml) was calculated based on the standard solutions measured in parallel.

[2] = Cytotoxicity (general statement); conditions: at a dose exhibiting a biological activity of a pharmaceutical
[3] = test system: K562; assay: Cell viability by Rhodamine 123 staining after heat treatment; format: cell-based, human; conditions: 20 minutes at 43°C (heat treatment) followed by 60 minutes at 37°C, HA4 100 ng/ml
Description: In this example, effect of the inventive pharmaceutical agent on cell viability was measured using Rhodamine 123. […] Accordingly, the degree of the staining with Rhodamine 123 serves as an index of the mitochondrial activity, thus the index of the cellular activity (see, non-patent reference 2).
In this example, a K562 (referred to as human erythroleukemia cell or human erythroblastoid leukemia cell) was used. The K562 was purchased from RIKEN, Japan.
In this example relating to preparation of test substance, HA4 was prepared at 100 ng/ml. Specifically, HA4 was prepared by the method of Tawada et al. (Tawada A, Masa T, Oonuki Y, Watanabe A, Matsuzaki Y, Asari A. Large-scale preparation, purification and characterization of hyaluronan oligosaccharides from 4-mers to 52-mers. Glycobiology, 2002; 12(7):421-6) and the concentration was adjusted using a physiological saline.
First, the K562 was incubated under the condition described below. The culture medium for the K562 was an RPMI-1640 medium. In this example, the K562 was incubated in Groups 1 to 3 shown below. Each group was cultured under the condition described below. […]
The K562 after washing was inoculated at 1×10^4 cells/ml in a 96-well plate and a photograph was taken using a fluorescent microscope (Nikon) . The image was sent to anAdobe Photoshop (Adobe Systems) where the fluorescent intensity of a cell was measured.

[4] = test system: K562; assay: DNA chip gene expression analysis, cytokine- and chemokine-associated genes (Example 4); format: cell-based, human; conditions: 42°C 20 minutes then 37°C 30 minutes, HA4 10 ng/ml
Description: Experimental method: First, the K562 was incubated in Groups 1 and 2 in the RPMI medium described above. The both groups were incubated at 42°C for 20 minutes followed by 37°C for 30 minutes. The medium of Group 2 was supplemented with HA4 (10 ng/ml).
(§3) After the incubation, the medium was removed by centrifugation at 1000 rpm. The obtained cells were stored in a deep freezer at -60°C. From the cells thus stored, RNA was extracted according to a standard method. The extracted RNA was subjected to the DNA chip to analyze the gene expression. The DNA chip gene expression analysis was subtracted to DNA CHIP Research Inc. Specifically, the trade name: AceGene Human Oligo Chip 30K 1 Chip Version manufactured by DNA CHIP Research Inc. was employed.

[5] = test system: U937 cell; assay: Cytokine production under LPS stimulation, cytokine antibody array; format: cell-based, human; conditions: LPS 100 ng/ml, HA4 100 ng/ml, 24 hours
Description: as §1, §2
A 2 ml aliquot of a blocking buffer was added to a membrane blotted with an antibody, which was then shaken for 30 minutes. The blocking buffer was removed, and a 1 ml aliquot of the culture supernatant was added and shaken at room temperature for 2 hours, washed 5 times, and then admixed with a primary antibody solution. After agitating at room temperature for 1.5 hours followed by washing 5 times, a secondary antibody solution was added and agitated overnight at 4°C. After washing 5 times, a chemiluminescence was allowed to develop and photographed by a Polaroid. The photograph was scanned to obtain its digital data which were subjected to an Image J to measure the luminescent intensity. The ratio based on the luminescent intensity of an internal standard placed in 6 positions in the membrane was calculated. In addition, a relative level (%) based on the expression level in a non-treatment group (NT) being 100 was calculated.

[6] = test system: cerebrospinal tissue; assay: DNA array analysis of cerebrospinal tissue of EAE model animals; format: in vivo, Lewis rats; conditions: Day 14, intrathecal continuous administration 6 µg/day immediately after inoculation of antigen
[7] = test system: K562; assay: DNA chip gene expression analysis, cell viability-related genes (Example 3); format: cell-based, human; conditions: 42°C 20 minutes then 37°C 30 minutes, HA4 10 ng/ml
Description: First, the K562 was incubated in Groups 1 and 2 in the […] described above. The both groups were incubated at 42°C for 20 minutes followed by 37°C for 30 minutes. The medium of Group 2 was supplemented with HA4 (10 ng/ml).
as §3, with “analyze” for “analyze the”, “gene expressions.” for “gene expression.”, “by DNACHIP” for “by DNA CHIP”

[8] = test system: experimental autoimmune encephalomyelitis (EAE); assay: EAE (multiple sclerosis model) neural symptom evaluation after intraspinal administration; format: in vivo, Lewis rats; conditions: for clinical score (EAE grade): Day 13 after antigen inoculation
[9] = intraspinal continuous administration immediately after inoculation, 6 µg/day, 22 Days
[10] = intraspinal single administration after onset of disease, 60 µg

tetrasaccharide hyaluronan [HA4]
production of IL-6 [1]: reduction | cytotoxicity [2]: almost or completely no cytotoxicity | Rhodamine 123 staining performance (fluorescent intensity) [3]: inhibited such a reduction | HA4(+)/HA4(-) ratio ([4]; gene CCL28): 0.32 | HA4(+)/HA4(-) ratio ([4]; gene IFN-γ): 0.11 | HA4(+)/HA4(-) ratio ([4]; gene IFN-ω1): 0.5 | HA4(+)/HA4(-) ratio ([4]; gene IL-1β): 0.36 | HA4(+)/HA4(-) ratio ([4]; gene IL-5): 0.28 | HA4(+)/HA4(-) ratio ([4]; gene IL-17b): 0.31 | HA4(+)/HA4(-) ratio ([4]; gene IL-18RAP): 0.32 | HA4(+)/HA4(-) ratio ([4]; gene Mig(CXCL9)): 0.11 | production of IL-1α [5]: reduction | production of IL-1β [5]: reduction | production of IL-6 [5]: reduction | production of TGF-β [5]: reduction | production of TNF-α [5]: reduction | production of TNF-β [5]: reduction | Expression level ratio (HA/physiological saline) ([6]; Decoy TRAIL receptor without death domain): 2.0 | Expression level ratio (HA/physiological saline) ([6]; Fibroblast growth factor receptor substrate 2): 2.3 | Expression level ratio (HA/physiological saline) ([6]; Transthyretin): 0.38 | HAA+/- ratio ([7]; gene Caspase 2): 0.27 | HAA+/- ratio ([7]; gene DNAJ2): 0.34 | HAA+/- ratio ([7]; gene Granzyme H): 0.38 | HAA+/- ratio ([7]; gene STK17b (DARK2)): 0.09 | HAA+/- ratio ([7]; gene TAF9L): 0.43 | HAA+/- ratio ([7]; gene dnaj (hsp40) homolog): 2.62 | HAA+/- ratio ([7]; gene pawr (Par-4)): 0.45 | clinical score (EAE grade) ([8]; intraspinal continuous administration from onset of disease, 6 µg/day, 11 Days): 1.5 ± 1.0 | clinical score (EAE grade) [8, 9]: 0.2 ± 0.41 | clinical score (EAE grade) [8, 10]: 1.8 ± 0.5 | cases developing the disease [8, 9]: 1/6 | diseased period [8, 10]: 5.0 ± 1.5 days
